From publication PMC9823097, “Dysregulation of PRMT5 in chronic lymphocytic leukemia promotes progression with high risk of Richter’s transformation” (Nature Communications, 2023)
Several values for one entry are separate records, joined by “and”; a condition that tells them apart may be missing. Identical values can stand only once. Entries after “also recorded” stand apart in the source; their conditions may differ. Like-named read-outs stand apart in the source and are kept apart here.

Legend:
CCMCL-1 = experiment: Anti-proliferative activity, MTS assay, CCMCL-1; type: cell-based; settings: MCL, read-out: PRT382 IC50 (anti-proliferative)
Method: (§1) Cell proliferation was assessed via MTS (3-[4,5-dimethylthiazol-2-yl]-5-[3-carboxymethoxyphenyl]-2-[4-sulfophenyl]-2H-tetrazolium) assay (Sigma), using the tetrazolium dye […]. Cell apoptosis was evaluated by Annexin V-FITC or PE and propidium iodide (PI) staining using FC500 cytometer (Beckman-Coulter, Indianapolis, IN) following the manufacturer’s procedure (BD Pharmingen, Billerica, MA)[55]. For cell cycle analysis, cells were fixed with cold ethanol overnight and then stained before analysis with 30 μg/mL propidium iodide (Invitrogen) and 200 μg/mL RNase (Sigma-Aldrich) in 0.1 % v/v Triton X-100 (Sigma-Aldrich). Cell cycle data analysis was performed using ModFit LT software (Verity Software House, Topsham, ME).

JVM-2 = experiment: Anti-proliferative activity, MTS assay, JVM-2; type: cell-based; settings: Homo sapiens, DLBCL, read-out: PRT382 IC50 (anti-proliferative)
Method: as §1

U-2932 = experiment: Anti-proliferative activity, MTS assay, U-2932; type: cell-based; settings: Homo sapiens, U2932, DLBCL, read-out: PRT382 IC50 (anti-proliferative)
Method: as §1

Jurkat = experiment: Anti-proliferative activity, MTS assay, Jurkat; type: cell-based; settings: Homo sapiens, T-cell line, read-out: PRT382 IC50 (anti-proliferative)
Method: as §1

[1] = tested on: leukemia and lymphoma cell lines; experiment: Proliferation of a panel of leukemia and B-lymphoma cell lines, 72 h, MTS assay; type: cell-based; settings: for IC50: CCMCL-1, JVM-2, U-2932, RL, and KARPAS-422, read-out: Anti-proliferative IC50 values, range over cell lines
Method: as §1

[2] = Pharmacokinetics in mice (clearance, oral bioavailability, AUC); type: in vivo
[3] = Pharmacokinetics in rats (clearance, oral bioavailability); type: in vivo
Mec-1 CLL cell line = experiment: Global symmetric dimethyl arginine (SDMA) western blot, Mec-1; type: cell-based; settings: Mec-1, 72 h treatment
Excerpt: Proteins extracted from whole-cell lysates were resolved by SDS-PAGE and transferred on nitrocellulose membrane as previously described. CpG685 oligonucleotide was obtained from the OSU Cytogenetics Core Lab. Antibodies used for immunoblots included anti-human PRMT5 (Abcam #ab109451), GAPDH (Millipore Sigma #MAB374), SDMA (Cell Signaling Technology #13222), c-Myc (Cell Signaling Technology #5605S), and β-Actin (Cell Signaling Technology #4967S). Cas9-mediated doxycycline-inducible knockout of PRMT5 utilized a targeted sgRNA (guide sequence: […], PAM: GGG).

primary CLL cells = experiment: Proliferation of primary IGHV-U CLL cells, MTS assay, 72 h, with and without CpG; type: cell-based, human; settings: for Normalized A490: +CpG, individual patients' primary CLL cells, normalized to -CpG dose 0
Excerpt: Our research complies with all relevant ethical regulations. De-identified human CLL cells were isolated as previously described after obtaining informed consent on protocols approved by The Ohio State University Cancer Institutional Review Board in accordance with the Declaration of Helsinki. All patients examined had CLL as defined by the 2008 IWCLL criteria. Sex and age of the patients who provided samples was not available. Human peripheral blood mononuclear cells (PBMC) were isolated from CLL patients using Ficoll density gradient centrifugation. (Ficoll-Paque Plus; Amersham Biosciences Inc, Piscataway, NJ). Enriched B-cell fractions were prepared using the RosetteSep™ B-cell kit (STEMCELL Technologies, Vancouver, Canada) according to the manufacturer’s instructions. Isolated cells were incubated in RPMI 1640 media (Invitrogen, Grand Island, NY) supplemented with 10% heat-inactivated fetal bovine serum (Sigma-Aldrich, St. Louis, MO), 2 mM L-glutamine (Invitrogen), and 100 U/mL penicillin/100 μg/mL streptomycin (Sigma-Aldrich) at 37 °C in an atmosphere of 5% CO2. The purity of enriched populations of CLL was routinely checked using CD19-PE (BD Pharmingen, Billerica, MA) staining by flow cytometry.
as §1

[4] = tested on: Eµ-PRMT5/TCL1 Cd19+Cd5+ spleen cells engrafted into immunocompetent C57/BL6J mice; experiment: Adoptive transfer of Eµ-PRMT5/TCL1 spleen cells into C57/BL6J mice, treatment study; type: in vivo
Method: For adoptive transfer, viable Cd19^+Cd5^+ cells (5 × 10^6) from the spleen of an Eµ-PRMT5/TCL1 transgenic mouse with active CLL-like leukemia (>80% circulating in peripheral blood) and palpable splenomegaly were engrafted by tail vein into immunocompetent C57/BL6J female mice. Engrafted mice were randomly assigned to treatment conditions: PRT382 10 mg/kg, EPZ015666 50 mg/kg, or vehicle (0.5% methylcellulose, 0.1% tween) at 1-week post engraftment. All treatments were administered by oral gavage 4 contiguous days per week (Mon-Thurs). Predefined euthanasia criteria for mice in all transgenic colonies and murine transplant models were followed and included lethargy, impaired motility, splenomegaly, enlarged lymph nodes and/or superficial lymphoid tumors greater than 1.6 cm in diameter (or cumulative diameter of 1.6 cm if multiple tumors), decrease in body weight (>20%), ruffled fur, hunched back, failure to nest, and loss of appetite.

[5] = molecular target: recombinant human PRMT5/MEP50 (Homo sapiens, UniProt O14744); experiment: Filtration binding assay with recombinant human PRMT5/MEP50 (biochemical potency); settings: histone H2A as the protein substrate
recombinant human PRMT5/MEP50, sequence (O14744 whole entry): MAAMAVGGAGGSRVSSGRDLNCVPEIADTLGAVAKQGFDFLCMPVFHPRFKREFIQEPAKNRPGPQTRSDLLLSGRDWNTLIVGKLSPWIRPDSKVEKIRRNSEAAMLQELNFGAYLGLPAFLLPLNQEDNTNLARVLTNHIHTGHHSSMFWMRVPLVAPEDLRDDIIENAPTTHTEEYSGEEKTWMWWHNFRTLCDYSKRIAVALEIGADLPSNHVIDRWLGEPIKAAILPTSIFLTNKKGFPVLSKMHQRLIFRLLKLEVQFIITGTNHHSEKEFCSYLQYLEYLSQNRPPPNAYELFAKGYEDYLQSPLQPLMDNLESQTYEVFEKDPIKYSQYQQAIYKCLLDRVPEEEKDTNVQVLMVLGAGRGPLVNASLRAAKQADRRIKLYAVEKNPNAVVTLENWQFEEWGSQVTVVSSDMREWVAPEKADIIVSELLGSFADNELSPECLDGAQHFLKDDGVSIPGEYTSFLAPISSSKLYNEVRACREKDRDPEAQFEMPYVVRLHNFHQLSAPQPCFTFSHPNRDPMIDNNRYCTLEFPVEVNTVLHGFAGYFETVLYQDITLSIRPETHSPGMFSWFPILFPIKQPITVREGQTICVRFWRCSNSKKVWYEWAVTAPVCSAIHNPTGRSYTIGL
recombinant human PRMT5/MEP50, sequence (Q9BQA1 whole entry partner): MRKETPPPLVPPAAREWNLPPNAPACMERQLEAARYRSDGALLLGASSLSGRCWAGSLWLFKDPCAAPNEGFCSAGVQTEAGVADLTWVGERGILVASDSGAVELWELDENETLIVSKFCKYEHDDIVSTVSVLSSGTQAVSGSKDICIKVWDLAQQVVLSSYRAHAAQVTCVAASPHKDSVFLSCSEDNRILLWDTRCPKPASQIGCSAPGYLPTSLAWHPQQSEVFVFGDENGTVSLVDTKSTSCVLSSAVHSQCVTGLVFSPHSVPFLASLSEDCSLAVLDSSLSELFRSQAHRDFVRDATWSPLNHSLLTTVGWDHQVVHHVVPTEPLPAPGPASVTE

Structure (SMILES): CON=c1nc[nH]c2c1ccn2[C@@H]1O[C@H]([C@H](O)c2ccc(Cl)c(Cl)c2)[C@@H](O)[C@H]1O.Cl [PRT382, (2 R,3 S,4 R,5 R)-2-[(R)-(3,4-dichlorophenyl)-hydroxy-methyl]-5-[(4Z)-4-methoxyimino-1H-pyrrolo[2,3-d]pyrimidin-7-yl]tetrahydrofuran-3,4-diol hydrochloride]
- IC50 (CCMCL-1): 14 nM
- IC50 (JVM-2): 10 nM
- IC50 (U-2932): 12 nM
- IC50 (Jurkat): > 1000 nM
- proliferation relative to DMSO (=1), Figure 6F ([1]; CCMCL, 1e-9 M): 0.94
- proliferation relative to DMSO (=1), Figure 6F ([1]; CCMCL, 1e-8 M): 0.93
- proliferation relative to DMSO (=1), Figure 6F ([1]; CCMCL, 1e-7 M): 0.55
- proliferation relative to DMSO (=1), Figure 6F ([1]; CCMCL, 1e-6 M): 0.13
- proliferation relative to DMSO (=1), Figure 6F ([1]; CCMCL, 1e-5 M): 0.12
- IC50 ([1]; earlier manuscript text quoted in the peer review file): 10 to 100 nM
- IC50 [1]: 10 to 500 nM
- proliferation relative to DMSO (=1), Figure 6F ([1]; Jeko, 1e-9 M): 1
- proliferation relative to DMSO (=1), Figure 6F ([1]; Jeko, 1e-8 M): 0.98
- proliferation relative to DMSO (=1), Figure 6F ([1]; Jeko, 1e-7 M): 0.96
- proliferation relative to DMSO (=1), Figure 6F ([1]; Jeko, 1e-6 M): 0.13
- proliferation relative to DMSO (=1), Figure 6F ([1]; Jeko, 1e-5 M): 0.14
- proliferation relative to DMSO (=1), Figure 6F ([1]; Pfeiffer, 1e-9 M): 0.99
- proliferation relative to DMSO (=1), Figure 6F ([1]; Pfeiffer, 1e-8 M): 1
- proliferation relative to DMSO (=1), Figure 6F ([1]; Pfeiffer, 1e-7 M): 0.76
- proliferation relative to DMSO (=1), Figure 6F ([1]; Pfeiffer, 1e-6 M): 0.18
- proliferation relative to DMSO (=1), Figure 6F ([1]; Pfeiffer, 1e-5 M): 0.22
- proliferation relative to DMSO (=1), Figure 6F ([1]; SU-DHL-4, 1e-9 M): 1
- proliferation relative to DMSO (=1), Figure 6F ([1]; SU-DHL-4, 1e-8 M): 1
- proliferation relative to DMSO (=1), Figure 6F ([1]; SU-DHL-4, 1e-7 M): 0.79
- proliferation relative to DMSO (=1), Figure 6F ([1]; SU-DHL-4, 1e-6 M): 0.13
- proliferation relative to DMSO (=1), Figure 6F ([1]; SU-DHL-4, 1e-5 M): 0.15
- clearance [2]: low
- bioavailability ([2]; mouse, in vivo, po, read-out: oral bioavailability (F%)): 70 to 80%
- clearance [3]: low
- bioavailability ([3]; rat, in vivo, po, read-out: oral bioavailability (F%)): 70 to 80%
- lowest dose with decrease in global SDMA residues (Mec-1 CLL cell line): 100 nM
- Normalized A490 (primary CLL cells; PRT382 0.001 μM): 3.307 and 4.074 and 2.806 and 1.916 and 4.967 and 4.310 and 1.926 and 2.473 and 1.595 and 1.924
- Normalized A490 (primary CLL cells; PRT382 0.010 μM): 3.718 and 3.941 and 2.668 and 1.775 and 4.704 and 4.675 and 1.969 and 2.468 and 1.587
- Normalized A490 (primary CLL cells; PRT382 0.100 μM): 3.022 and 3.734 and 2.874 and 1.799 and 4.461 and 3.405 and 1.501 and 2.532 and 1.373
- Normalized A490 (primary CLL cells; PRT382 1.000 μM): 2.691 and 3.811 and 2.801 and 1.761 and 4.387 and 2.568 and 1.496 and 2.524 and 1.293
- Normalized A490 (primary CLL cells; PRT382 10.000 μM): 1.699 and 2.509 and 3.622 and 2.474 and 1.561 and 4.249 and 2.269 and 1.136 and 2.309
- proliferative potential of primary CLL cells (primary CLL cells; n = 12 IGHV-U patients, 72 h, with and without TLR9 stimulation (CpG)): Dose-dependent decrease in proliferation; also recorded: dose-dependent reduction in proliferative potential
- Week 1 CD19+/B220dim ([4]; Figure 7F, per mouse, week 1, in % (unit assumed)): 14.94 and 11.13 and 14.86 and 15.24 and 10.03 and 10.93 and 22.62 and 11.33 and 10.17 and 14.2
- Week 2 CD19+/B220dim ([4]; Figure 7F, per mouse, week 2, in % (unit assumed)): 13.43 and 12.86 and 10.14 and 23.82 and 13.56 and 16.79 and 25.72 and 21.61 and 19.95 and 20.17
- Week 3 CD19+/B220dim ([4]; Figure 7F, per mouse, week 3, in % (unit assumed)): 26.89 and 23.33 and 20.67 and 34.07 and 24.63 and 26.03 and 34.34 and 21.21 and 26.17 and 22.42
- Week 4 CD19+/B220dim ([4]; Figure 7F, per mouse, week 4, in % (unit assumed)): 41.39 and 38.3 and 24.43 and 39.63 and 41.81 and 49.51 and 51.09 and 40.09 and 18.3 and 35.71
- Week 5 CD19+/B220dim ([4]; Figure 7F, per mouse, week 5): 59.47 and 50.76 and 31.63 and 42.2 and 57.43 and 71.78 and 71.22 and 54.4 and 38.84 and 43.16
- Week 6 CD19+/B220dim ([4]; Figure 7F, per mouse, week 6, in % (unit assumed)): 77.7 and 46.25 and 37.53 and 72.87 and 45.24 and 51.74 and 53.46 and 63.05 and 57.02 and 47.66
- Week 7 CD19+/B220dim ([4]; Figure 7F, per mouse, week 7, in % (unit assumed)): 84.05 and 64.76 and 55.81 and 74.55 and 67.6 and 65.33 and 67.88 and 74.71 and 65.7 and 77.54
- Week 8 CD19+/B220dim ([4]; Figure 7F, per mouse, week 8): 89.79 and 78.47 and 68.08 and 80.27 and 72.86 and 72.85 and 63.41 and 82.55 and 81.05 and 82.92
- Week 9 CD19+/B220dim ([4]; Figure 7F, per mouse, week 9): 91.31 and 75.18 and 73.48 and 85.11 and 81.63 and 77.6 and 71.82 and 88.55 and 87.37 and 84.51
- Week 10 CD19+/B220dim ([4]; Figure 7F, per mouse, week 10, in % (unit assumed)): 76.49 and 84.3 and 76.64 and 83.91 and 87.5 and 87.78 and 77.93 and 88.18 and 89.1 and 91.37
- Week 11 CD19+/B220dim ([4]; Figure 7F, per mouse, week 11, in % (unit assumed)): 84.23 and 77.24 and 87.2 and 87.38 and 85.21 and 81.05 and 94.62 and 92.7 and 90.88
- Week 12 CD19+/B220dim ([4]; Figure 7F, per mouse, week 12): 87.17 and 83.54 and 90.72 and 88.55 and 85.11
- Week 13 CD19+/B220dim ([4]; Figure 7F, per mouse, week 13, in % (unit assumed)): 69.75 and 81.14 and 92.04 and 85.97 and 82.89
- Endpoint ([4]; Figure 7G, survival endpoint indicator, per mouse): 1
- Days since enrollment ([4]; Figure 7G, survival, per mouse): 64 days and 85 days and 92 days and 71 days and 84 days
- Spleen weight ([4]; Figure 7H, per mouse): 0.86 g and 1.01 g and 0.37 g and 0.52 g and 0.24 g and 0.7 g and 0.84 g
- survival compared to EPZ015666 or vehicle ([4]; PRT382 10 mg/kg): significant extension in survival
- hazard ratio, PRT382 vs EPZ015666 (Mantel–Cox) ([4]; PRT382 10 mg/kg vs EPZ015666 50 mg/kg, survival): 0.65
- PRMT5 target modulation, immunoblot of splenic B cells ([4]; PRT382 10 mg/kg, EPZ015666 50 mg/kg): confirmed PRMT5 target modulation
- Median survival post-enrollment ([4]; PRT382 10 mg/kg, EPZ015666 50 mg/kg, oral gavage 4 contiguous days per week): 77 days
- hazard ratio, PRT382 vs vehicle (Mantel–Cox) ([4]; PRT382 10 mg/kg, survival): 0.21
- spleen weight and volume compared to EPZ015666 or vehicle ([4]; at ERC): significantly reduced weight and volume
- leukemic expansion across non-lymphoid tissues (histopathology, liver) ([4]; compared with vehicle or EPZ015666-treated mice): decrease in leukemic expansion
- Spleen volume ([4]; individual mice, Supplemental Figure 6F): 645.24 mm3 and 1183.96 mm3 and 457.289 mm3 and 271.152 mm3 and 253.789 mm3 and 859.967 mm3 and 562.493 mm3
- rate of peripheral disease (CLL-like cells in peripheral blood) ([4]; weeks 2-7 post engraftment, compared to EPZ015666 or vehicle): reduced the rate of peripheral disease
- IC50 [5]: 2.8 nM
